Reference: patent publication US20220073554A1, “LINCOSAMIDE ANTIBIOTICS AND USES THEREOF” (President and Fellows of Harvard College, priority 2017, published 2022)
Converted amounts (≈) assume the structure as drawn. Like-named read-outs stand apart in the source and are kept apart here.

How the values were obtained:
Type in all cases: cell-based
S. aureus ATCC 29213 = assay: MIC against S. aureus ATCC 29213; conditions: Staphylococcus aureus
S. pneumoniae ATCC 49619 = assay: MIC against S. pneumoniae ATCC 49619; conditions: Streptococcus pneumoniae, ATCC49619; S. pneumoniae ATCC 49619; read-out: MIC
H. influenzae ATCC 49247 = assay: MIC against H. influenzae ATCC 49247; conditions: Haemophilus influenzae, ATCC49247
K. pneumoniae ATCC 10031 = assay: MIC against K. pneumoniae ATCC 10031; conditions: Klebsiella pneumoniae, ATCC10031
[1] = test system: S. aureus UNT96, NRS710, MP-618 (USA100, Erythro > 8); assay: microbe, parasite or virus in culture; conditions: Staphylococcus aureus
[2] = test system: S. pyogenes UNT-014, MP-625 MacRes; assay: MIC against S. pyogenes UNT-014, MP-625 MacRes; conditions: Streptococcus pyogenes
E. faecalis UNT-047 VRE = assay: microbe, parasite or virus in culture; conditions: Enterococcus faecalis
[3] = test system: S. pneumoniae UNT-039, MP-627, TP1517 (mefA); assay: MIC against S. pneumoniae UNT-039, MP-627, TP1517 (mefA); conditions: Streptococcus pneumoniae
E. coli GUEST131 (NDM-1) = assay: microbe, parasite or virus in culture; conditions: Escherichia coli
[4] = test system: S. pneumoniae TP 1537 (ermB + mefA); assay: MIC against S. pneumoniae TP 1537 (ermB + mefA); conditions: Streptococcus pneumoniae
[5] = test system: S. pneumoniae UNT-038, MP-626, TP 160 (mefA); assay: MIC against S. pneumoniae UNT-038, MP-626, TP 160 (mefA); conditions: Streptococcus pneumoniae
P. aeruginosa ATCC 27853 = assay: MIC against P. aeruginosa ATCC 27853; conditions: Pseudomonas aeruginosa, ATCC27853
[6] = test system: K. pneumoniae IHMA 658692; KPC-2; assay: microbe, parasite or virus in culture; conditions: Klebsiella pneumoniae
[7] = test system: S. aureus BAA-1556 (USA 300); assay: microbe, parasite or virus in culture; conditions: Staphylococcus aureus
E. coli ATCC 15922 = assay: MIC against E. coli ATCC 15922; conditions: Escherichia coli, ATCC15922
S. pyogenes ATCC 19615 = assay: MIC against S. pyogenes ATCC 19615; conditions: Streptococcus pyogenes, ATCC19615
[8] = test system: S. aureus UNT-146, MP-620, TP 506 (ermA); assay: microbe, parasite or virus in culture; conditions: Staphylococcus aureus
[9] = test system: S. aureus UNT-120, MP-619, NR522 (USA 600, GISA); assay: microbe, parasite or virus in culture; conditions: Staphylococcus aureus, USA600
[10] = test system: S. pneumoniae TP 1579 (ermB + tet(M, O)); assay: MIC against S. pneumoniae TP 1579 (ermB + tet(M, O)); conditions: Streptococcus pneumoniae
S. aureus BAA 977 iErmA = assay: MIC against S. aureus BAA 977 iErmA; conditions: Staphylococcus aureus, BAA977
E. faecalis ATCC 29212 = assay: MIC against E. faecalis ATCC 29212; conditions: Enterococcus faecalis, ATCC29212
[11] = test system: S. aureus MP-549 msr(a) USA 300; assay: MIC against S. aureus MP-549 msr(a) USA 300; conditions: Staphylococcus aureus, USA300, S. aureus MP-549 msr(a) USA 300
E. coli MP-9 ΔTolC = assay: MIC against E. coli MP-9 ΔTolC; conditions: Escherichia coli
[12] = test system: S. aureus MP-513 clinical cErm; assay: MIC against S. aureus MP-513 clinical cErm; conditions: Staphylococcus aureus
E. coli ATCC 25922 = assay: MIC against E. coli ATCC 25922; conditions: Escherichia coli, ATCC25922
S. aureus MMX 3035 cErmA = assay: MIC against S. aureus MMX 3035 cErmA; conditions: Staphylococcus aureus, MMX3035CERMA
C. difficile BAA 1805 = assay: MIC against C. difficile BAA 1805; conditions: Clostridioides difficile, BAA1805
[13] = test system: E. coli MMX TolC parent strain; assay: MIC against E. coli MMX TolC parent strain; conditions: Escherichia coli
[14] = test system: S. pyogenes MMX 946 Macrolide-Resistant; assay: MIC against S. pyogenes MMX 946 Macrolide-Resistant; conditions: Streptococcus pyogenes
E. coli MMX 0121 ΔTolC = assay: MIC against E. coli MMX 0121 ΔTolC; conditions: Escherichia coli
[15] = test system: S. pneumoniae MMX 3031 cMefA; assay: MIC against S. pneumoniae MMX 3031 cMefA; conditions: Streptococcus pneumoniae, MMX3031CMEFA
B. fragilis ATCC 25285 = assay: MIC against B. fragilis ATCC 25285; conditions: Bacteroides fragilis, ATCC25285
[16] = test system: E. faecalis MMX 847 Macrolide-Resistant; assay: MIC against E. faecalis MMX 847 Macrolide-Resistant; conditions: Enterococcus faecalis
[17] = test system: P. aeruginosa MMX Mex parent strain; assay: MIC against P. aeruginosa MMX Mex parent strain; conditions: Pseudomonas aeruginosa
K. pneumoniae UNT TEM-10 = assay: microbe, parasite or virus in culture; conditions: Klebsiella pneumoniae, UNTTEM10
[18] = test system: P. aeruginosa MMX 3476 Δmex; assay: MIC against P. aeruginosa MMX 3476 Δmex; conditions: Pseudomonas aeruginosa
[19] = test system: S. aureus Micromyx USA 300; assay: MIC against S. aureus Micromyx USA 300; conditions: Staphylococcus aureus, USA300
[20] = test system: S. pneumoniae MMX 3028 cErmB; assay: MIC against S. pneumoniae MMX 3028 cErmB; conditions: Streptococcus pneumoniae, MMX3028CERMB
[21] = H. influenzae ATCC 49247, read-out: MIC
[22] = S. pyogenes ATCC 19615, read-out: MIC

Row | SMILES | MIC (S. pneumoniae ATCC 49619) [µg/mL] | MIC (H. influenzae ATCC 49247; [21]) [µg/mL] | MIC [1] [µg/mL] | MIC [2] [µg/mL] | MIC (E. faecalis UNT-047 VRE) [µg/mL] | MIC [3] [µg/mL] | MIC (E. coli GUEST131 (NDM-1)) [µg/mL] | MIC [5] [µg/mL] | MIC (P. aeruginosa ATCC 27853) [µg/mL] | MIC [6] [µg/mL] | MIC [7] [µg/mL] | MIC (E. coli ATCC 15922) [µg/mL] | MIC (S. pyogenes ATCC 19615; [22]) [µg/mL] | MIC [8] [µg/mL] | MIC [9] [µg/mL] | MIC [10] [µg/mL] | MIC (S. aureus ATCC 29213; ATCC29213) [µg/mL] | MIC (S. aureus BAA 977 iErmA) [µg/mL] | MIC (E. faecalis ATCC 29212) [µg/mL] | MIC [11] [µg/mL] | also measured
1 | CSC1O[C@H]([C@H](NC(=O)[C@@H]2[C@@H]3OCCCC[C@H]3CN2C)[C@H](C)Cl)C(O)[C@@H](O)[C@H]1O (some centres unmarked) [FSA-24040] | ≤ 0.0313 | 8 (≈ 17.7 µM) | > 32 | ≤ 0.0313 | > 32 | ≤ 0.0313 | > 32 | ≤ 0.0313 | > 32 | > 32 | > 32 | > 32 | ≤ 0.0313 | > 32 | > 32 | ≤ 0.0313 | – | – | – | – | MIC (S. aureus ATCC 29213; ATCC29213, S. aureus ATCC 29213, read-out: MIC): ≤ 0.0313 µg/mL; MIC (K. pneumoniae ATCC 10031; K. pneumoniae ATCC 10031, read-out: MIC): 8 µg/mL (≈ 17.7 µM); MIC [4]: > 32 µg/mL
2 | CSC1O[C@H]([C@H](NC(=O)[C@H]2NC[C@@H]3C[C@@H](O)[C@@H](O)CO[C@H]32)[C@H](C)Cl)C(O)[C@@H](O)[C@H]1O (some centres unmarked) [FSA-501076] | – | – | > 64 | – | > 64 | – | – | – | > 64 | – | – | – | – | > 64 | > 64 | – | > 64 | > 64 | > 64 | > 64 | MIC (K. pneumoniae ATCC 10031): > 64 µg/mL; MIC (E. coli MP-9 ΔTolC): > 64 µg/mL; MIC [12]: > 64 µg/mL; MIC (S. pyogenes ATCC 19615): > 64 µg/mL; MIC (E. coli ATCC 25922): > 64 µg/mL
3 | CSC1O[C@H]([C@H](NC(=O)[C@H]2NC[C@@H]3CC=CCO[C@H]32)[C@H](C)Cl)C(O)[C@@H](O)[C@H]1O (some centres unmarked) [FSA-24035] | ≤ 0.06 | 1 (≈ 2.29 µM) | > 32 | ≤ 0.0313 | > 32 | ≤ 0.0313 | > 32 | ≤ 0.0313 | > 64 | > 32 | > 32 | > 64 | ≤ 0.0313 | > 32 | > 32 | ≤ 0.0313 | – | – | 16 (≈ 36.6 µM) | 0.5 (≈ 1.14 µM) | MIC (S. aureus MMX 3035 cErmA): > 64 µg/mL; MIC (C. difficile BAA 1805; C. difficile BAA 1805, read-out: MIC): 2 µg/mL (≈ 4.58 µM); MIC [13]: > 64 µg/mL; MIC [14]: 16 µg/mL (≈ 36.6 µM); MIC ([4]; S. pneumoniae TP 1537 (ermB + mefA), read-out: MIC): 32 µg/mL; MIC (E. coli MMX 0121 ΔTolC): 4 µg/mL (≈ 9.15 µM); MIC [15]: ≤ 0.06 µg/mL; MIC (B. fragilis ATCC 25285; B. fragilis ATCC 25285, read-out: MIC): 8 µg/mL (≈ 18.3 µM); MIC [16]: > 64 µg/mL; MIC [17]: > 64 µg/mL; MIC (K. pneumoniae UNT TEM-10): > 32 µg/mL
4 | Cc1ccc(S(=O)(=O)OCC2O[C@H]([C@H](NC(=O)[C@H]3NC[C@@H]4CC=CCO[C@H]43)[C@@H](C)O)C(O)[C@@H](O)[C@H]2O)cc1 (some centres unmarked) [FSA-211030] | – | – | – | – | – | – | – | – | > 64 | – | – | – | 1 (≈ 1.8 µM) | – | – | – | > 64 | > 64 | > 64 | – | MIC (S. aureus MMX 3035 cErmA): > 64 µg/mL; MIC (H. influenzae ATCC 49247): > 64 µg/mL; MIC [18]: > 64 µg/mL; MIC (C. difficile BAA 1805): > 64 µg/mL; MIC [13]: > 64 µg/mL; MIC [14]: > 64 µg/mL; MIC (E. coli MMX 0121 ΔTolC): > 64 µg/mL; MIC (B. fragilis ATCC 25285): > 64 µg/mL; MIC [16]: > 64 µg/mL; MIC [17]: > 64 µg/mL; MIC [19]: > 64 µg/mL; MIC [20]: > 64 µg/mL; MIC (E. coli ATCC 25922): > 64 µg/mL
